Experimental data: article PMC6203334 (Medicinal chemistry research : an international journal for …, 2018)

Key:
Format in all cases: cell-based
[1] = test system: Leishmania donovani promastigotes; test: In vitro antileishmanial assay, promastigotes; settings: for IC50: read-out: L. donovani promastigotes IC50; for IC90: read-out: L. donovani promastigotes IC90
[2] = test system: Leishmania donovani axenic amastigotes; test: In vitro antileishmanial assay, axenic amastigotes; settings: for IC50: read-out: L. donovani Axenic amastigotes IC50; for IC90: read-out: L. donovani Axenic amastigotes IC90
[3] = test system: Plasmodium falciparum chloroquine sensitive (D6, Sierra Leone); test: In vitro antimalarial assay; settings: D6, read-out: P. falciparum IC50 (D6)
[4] = test system: Plasmodium falciparum chloroquine resistant (W2, Indo China); test: In vitro antimalarial assay; settings: W2, read-out: P. falciparum IC50 (W2)
[5] = test system: Blood stage forms of Trypanosoma brucei brucei; test: In vitro antitrypanosomal assay; settings: NA: not active

Structure (SMILES)	IC50 [1] [nM]	IC90 [1] [nM]	IC50 [2] [nM]	IC90 [2] [nM]	IC50 [3] [nM]	IC50 [4] [nM]	T. brucei IC9 ([5]; Table 3) [µM]	IC50 ([5]; read-out: Trypanosoma brucei IC50) [nM]	IC90 ([5]; read-out: Trypanosoma brucei IC90) [nM]
C[C@@H]1[C@H](O)[C@@H](C)/C=C/C=C/C=C/C=C/C=C/C=C/C=C/[C@H](O[C@@H]2O[C@H](C)[C@@H](O)[C@H](N)[C@@H]2O)C[C@@H]2O[C@](O)(C[C@@H](O)C[C@@H](O)[C@H](O)CC[C@@H](O)C[C@@H](O)CC(=O)O[C@H]1C)C[C@H](O)[C@H]2C(=O)O [Amp B, Amphotericin B]	192	312	1730	2000	–	–	–	–	–
CCN(CC)CCCC(C)Nc1ccnc2cc(Cl)ccc12 (stereo not shown) [CQ, chloroquine]	–	–	–	–	52	460	–	–	–
NCCCC(N)(C(=O)O)C(F)F (stereo not shown) [DFMO, difluoromethylornithine]	–	–	–	–	–	–	59.175 ± 5.748	21300 ± 2010	59200 ± 5750
N=C(N)c1ccc(OCCCCCOc2ccc(C(=N)N)cc2)cc1 [Pent, pentamidine]	2040	3670	15300	16900	–	–	–	–	–
